Experimental data reported in patent publication US20240293537A1, “A[…]-GRAFTED LAURYL GAMMA-POL[…] USE THEREOF” (JIANGSU ACADEMY OF AGRICULTURAL SCIENCES, priority 2021, published 2024).

How the values were obtained:
[1] = tested on: Female Balb/c mice; settings: as adjuvant with OVA, 200 μL/mouse, serum 28 days after inoculation
Experimental: In addition, 500 μg/mL of an OVA solution (abbreviated as OVA) was prepared by taking a PBS buffer with a pH of 7.4 as a solvent; 100 μg/mL of an FIP solution (abbreviated as FIP) was prepared by taking a PBS buffer with a pH of 7.4 as a solvent.
After inoculation, the skin condition of the injection site was observed over one week. Blood was collected from the orbit 28 days after inoculation, and sera were separated and the antibody titer was measured.
The antibody titer was measured by adopting the following method: 10 μg/mL of an OVA protein solution was prepared by taking 0.05 mol/L of a Na2CO3—NaHCO3 buffer with a pH of 9.6 as a solvent. […]

[2] = tested on: RAW 264.7 cells
Experimental: After incubation for 24 h, the cells were pipetted, washed three times with PBS, centrifuged and finally resuspended in ice PBS before assay with flow cytometer (BD FACSCalibur flow cytometer).

Compound | IgG titer (OD450 nm) [1] | fluorescence of cells (uptake) ([2]; RAW 264.7, 24 h, FIP 50 μg/mL) | fluorescence intensity of the cells with increase of FIP concentration ([2]; RAW 264.7, different FIP concentrations) | solubility in acidic aqueous solution (acidic aqueous solution with a pH≤6) | solubility in solvent phase (hot DMSO and DMF solutions)
fluorescein-labeled amphiphilic imiquimod-grafted lauryl γ-polyglutamate [FIP] | 2.1 | a distinct fluorescence peak could still be seen | gradually increased |  | 
CC(C)Cn1cnc2c(N)nc3ccccc3c21 [Vaccine R837, imiquimod] | 3.07 |  |  | can be dissolved | slightly soluble
